Structures can show the parent of a compound that is named as a salt.
Experiments:
MCF7 = experiment: Antiproliferative activity against human MCF7 cells after 48 hrs by MTS assay; type: functional, cell-based; settings: MCF7, 48 h
A549 = experiment: Antiproliferative activity against human A549 cells after 48 hrs by MTS assay; type: functional, cell-based; settings: A549, 48 h
[1] = Fe2+ chelating activity of the compound incubated for 5 mins prior to ferrozine-addition measured after 10 mins by spectrophotometry; type: functional; set-up: concentration or dose not given beside the values
BXPC-3 = experiment: Antiproliferative activity against human BxPC3 cells after 48 hrs by MTS assay; type: functional, cell-based; settings: BXPC-3, 48 h
DU-145 = experiment: Antiproliferative activity against human DU145 cells after 48 hrs by MTS assay; type: functional, cell-based; settings: DU-145, 48 h
SK-MEL-5 = experiment: Antiproliferative activity against human SK-MEL-5 cells after 48 hrs by MTS assay; type: functional, cell-based; settings: SK-MEL-5, 48 h
HT-29 = experiment: Antiproliferative activity against human HT-29 cells after 48 hrs by MTS assay; type: functional, cell-based; settings: HT-29, 48 h
HepG2 = experiment: Antiproliferative activity against human HepG2 cells after 48 hrs by MTS assay; type: functional, cell-based; settings: HepG2, 48 h
MDA-MB-231 = experiment: Antiproliferative activity against human MDA-MB-231 cells after 48 hrs by MTS assay; type: functional, cell-based; settings: MDA-MB-231, 48 h

Row | SMILES | IC50 (MCF7) [µM] | IC50 (A549) [µM] | Activity [1] [%] | IC50 (BXPC-3) [µM] | IC50 (DU-145) [µM] | IC50 (SK-MEL-5) [µM] | IC50 (HT-29) [µM] | IC50 (HepG2) [µM] | IC50 (MDA-MB-231) [µM]
1 | CC(=O)O[C@@H]1[C@@H](O)[C@@H](OC(C)=O)[C@H](Oc2c(-c3ccc(O)cc3)oc3cc(O)cc(O)c3c2=O)O[C@H]1C | > 150 | > 150 | 49.1 | 113 | > 150 | > 150 | > 150 | > 150 | > 150
2 | O=c1c(O)c(-c2ccc(O)cc2)oc2cc(O)cc(O)c12 | – | – | 12.1 | – | – | – | – | – | –
3 | COc1cc(/C=C/C(=O)CC(=O)/C=C/c2ccc(O)c(OC)c2)ccc1O [CURCUMIN] | 65.2 | 62.6 | 37.9 | 11.4 | 38.2 | 50.4 | 15.9 | 59.4 | 64.7
4 | CC(=O)O[C@@H]1[C@@H](O)[C@@H](O)[C@H](Oc2c(-c3ccc(O)cc3)oc3cc(O)cc(O)c3c2=O)O[C@H]1C | > 150 | > 150 | 29.1 | > 150 | > 150 | > 150 | > 150 | > 150 | > 150
5 | CC(=O)O[C@@H]1[C@@H](O)[C@@H](O)[C@H](Oc2c(-c3ccc(O)cc3)oc3cc(O)c(-c4c(O)cc(O)c5c(=O)c(O[C@@H]6O[C@@H](C)[C@H](OC(C)=O)[C@@H](O)[C@H]6O)c(-c6ccc(O)cc6)oc45)c(O)c3c2=O)O[C@H]1C | – | – | 87.4 | – | – | – | – | – | –
6 | COc1cc(/C=C/C(O)=C/C(=O)/C=C/c2ccc(O)cc2)ccc1O [DEMETHOXYCURCUMIN] | 75.3 | 74.1 | 50.9 | 24.1 | 48.1 | 61.4 | 19.4 | 80 | 87.5
7 | CC[C@]1(O)C[C@@H]2CN(CCc3c([nH]c4ccccc34)[C@@](C(=O)OC)(c3cc4c(cc3OC)N(C)[C@H]3[C@@](O)(C(=O)OC)[C@H](OC(C)=O)[C@]5(CC)C=CCN6CC[C@]43[C@@H]65)C2)C1 [VINBLASTINE SULFATE] | 24.1 | 2.36 | – | 1.13 | 4.25 | 1.74 | 11.2 | 0.16 | 31.5
8 | CC(=O)O[C@@H]1[C@@H](O)[C@H](C)O[C@@H](Oc2c(-c3ccc(O)cc3)oc3cc(O)cc(O)c3c2=O)[C@@H]1OC(C)=O | – | – | 52.2 | – | – | – | – | – | –
9 | CC(=O)O[C@@H]1[C@@H](OC(C)=O)[C@@H](O)[C@H](Oc2c(-c3ccc(O)cc3)oc3cc(O)cc(O)c3c2=O)O[C@H]1C | – | – | 55.4 | – | – | – | – | – | –
